Measured values reported in US7226761B2, “Manufacture of five-carbon sugars and sugar alcohols” (Danisco Sweeteners Oy, priority 1992, dated 2007).
Like-named read-outs stand apart in the source and are kept apart here. One block for each molecule: values may come before it.

Tests used:
[1] = target: T1, DOG1 (Saccharomyces cerevisiae, UniProt P38774); experiment: Specificity of DOG1 towards sugar phosphates in yeast cell extracts (phosphate release); type: biochemical, S. cerevisiae; settings: 20 mM substrate; cell extract of H1514; relative to 2-deoxyglucose-6-P as 100%
T1 construct: expressed in transfected cells; host or cells: S. cerevisiae H1104 (W303-1B) transformed with plasmid B1020 (YEplac195, ADH1 promoter-DOG1-ADH1 terminator) = strain H1514; crude cell extract
T1 sequence (P38774 1-246): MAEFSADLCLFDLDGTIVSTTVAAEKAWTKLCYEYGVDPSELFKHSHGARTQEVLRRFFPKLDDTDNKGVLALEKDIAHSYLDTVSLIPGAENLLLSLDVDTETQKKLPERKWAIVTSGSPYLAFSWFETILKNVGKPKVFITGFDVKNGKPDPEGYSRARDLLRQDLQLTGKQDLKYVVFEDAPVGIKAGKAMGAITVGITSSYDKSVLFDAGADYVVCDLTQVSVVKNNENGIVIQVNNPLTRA
Protocol: The specificity of DOG1 towards xylulose-5-P, ribulose-5-P, ribose-5-P and 2-deoxyglucose-6-P was determined using 20 mM substrate concentrations. Yeast cell extracts were prepared as described in example 15, except that 50 mM imidazole-HCl, 10 mM MgCl2 buffer, pH 6.0 was used. 10 μl of extract and 210 μl of substrate (20 mM) in the same buffer was incubated for 30 min, 30° C. The reaction was stopped with final 2% of TCA and the phosphate released was measured using ammonium molybdate (15 mM), zinc acetate (100 mM), pH 5.0 as the reagent. The formation of molybdenum blue was measured at 350 nm, and quantified by phosphate standards (Sanz, P. et al., Yeast 10:1195–1202 (1994); Bencini, D. A. et al., Anal. Biochem. 132:254–258 (1983)).

[2] = tested on: TKL1,2 deficient strain harboring the XDH encoding gene from P. stipitis on a multi-copy plasmid (H1057); settings: for Polyols from glucose consumed in %: 25 μM IA
Protocol: TKL1,2 deficient strain H1055 carrying the pAOS67 multi-copy plasmid harboring the XDH encoding gene from P. stipitis (H1057) was cultivated in the presence of 25 μM IA (Fluka Chemie AG, Switzerland). The growth medium was SCD lacking histidine for plasmid selection and 7.65 g/l KNO3. Samples were withdrawn at the indicated time points, the OD600 measured, cells removed by centrifugation, and the growth medium samples were assayed for polyols by the Boehringer Mannheim D-sorbitol/xylitol kit and for glucose by the Boehringer Mannheim GOD-Perid kit.

[3] = Xylulose 5-phosphate reductase (XPDH/APDH) activity assay with NADH; type: biochemical; settings: cell extract of transformed B. subtilis BD170; xylulose 5-phosphate usually 5 mM
Protocol: The strain BD 170 [pGTK24(MXD2)] as well as untransformed strain BD 170 was grown overnight on either LB or LB, containing 10% glucose, cell extracts were prepared and the XDH activity measured. The assay conditions for measuring XDH activity were: 30° C., 50 mM Tris-HCI, pH 7.0, 0.2 mM NADH and 10 mM D-xylulose. Changes of absorption at 340 nm were recorded; one unit of activity was defined as the amount of enzyme that catalyzed the reduction of one […] of substrate per minute under the conditions of assay (assuming the differential absorption coefficient NADH/NAD^+ to be equal to […]). The following levels of XDH activity were measured in the strain BD170 [pGTK24(MXD2)] grown on the two media: LB—0.5 U/mgproteins, LB-glucose 0.05–0.15 U/mgprotein. Thus, glucose appeared to repress the activity of the aldolase promoter 3–10 fold. No XDH activity could be detected in the strain BD170 grown on either of the two media.
B. subtilis strain BD170 was transformed with pGTK74(LRXPDH) and pGTK74(BHDH2). The transformants were grown overnight in LB containing 25 mg/liter kanamycin, cell extract were prepared by sonication and the activity of XPDH activity was measured. The conditions for measuring the XPDH activity were similar to those used for measuring the xylitol dehydrogenase activity except that xylulose 5-phosphate was used as the substrate (usually at 5 mM concentration) instead of xylulose. The activities were approximately 0.3 U/mg protein for the XPDH from L. rhamnosus and about 0.5 U/mg protein for B. halodurans enzyme.
Enterococcus avium ATCC 35655 was cultivated at 30° C. in 5 liters of a medium containing: peptone—10 g/l, yeast extract—5 g/l, beef extract 10 g/l, K2HPO4 2 g/l, NaCl—5 g/l, MgSO4—0.02 g/l, MnCl2—0.05 g/l, ammonium citrate 2 g/l, Tween 20—1.1 ml/l, xylitol—20g/l, pH 6.5. […]

[4] = Stereospecificity of D-xylulose 5-phosphate reduction, products dephosphorylated and analyzed by HPLC; type: biochemical; settings: 10 mM xylulose 5-phosphate, 10 mM NADH, pH 7.0, 37° C.
Protocol: The stereospecificity of xylulose-phosphate reduction by the B. halodurans XPDH was verified by the following procedure. The reaction between D-xylulose 5-phosphate and NADH was conducted at 37° C. for several hours under the following conditions: 100 mM Tris-HC buffer, pH 7.0, 10 mM xylulose 5-phosphate, 10 mM NADH, […] the enzyme lysate. The reaction products were dephosphorylated with alkaline phosphatase and analyzed by HPLC. […] It should be noted that among the highest-scoring four homologues of the L. rhamnosus XPDH, the enzyme from B. holodurans is the least homologous. This can be interpreted as an indication that the other three homologues (SEQ ID NO:51, 52 and 53) are most probably also xylitol-phosphate dehydrogenases.
The stereospecificity of D-xylulose 5-phosphate reduction by the E. avium arabitol-phosphate dehydrogenase was verified by the following procedure. The reaction between D-xylulose 5-phosphate and NADH was conducted at 37° C. for several hours under the following conditions: 100 mM Tris-HCl buffer, pH 7.0, 10 mM xylulose 5-phosphate, 10 mM NADH, 1U of the enzyme. The reaction products were dephosphorylated with alkaline phosphatase and analyzed by HPLC. […] There are no other arabitol-phosphate dehydrogenases described in the art.
Both arabitol-phosphate dehydrogenase genes were expressed using the same tools and methods as those used for the expression of xylitol-phosphate dehydrogenases (Example 26). Briefly, the coding regions of the two arabitol-phosphate dehydrogenase genes were amplified using the chromosomal DNA of the microorganism from which the enzyme was isolated and the appropriate PCR primers. In the case of E. avium the primers were oAPDH 51 […] SEQ ID NO: 71) and the anti-sense primer oAPDH 31 […]) SEQ ID NO: 72. For B. halodurans, the sense primer was oBHDH 5 ([…], SEQ ID NO: 73) and the anti-sense primer was oBHDH 3 ([…], SEQ ID NO: 74). […] The stereospecificity of D-xylulose 5-phosphate reduction by the previously unknown enzyme from B. halodurans was determined as described in Example 30.

Relative activity (20 mM) [1]: 15%
Molecule: O=C(CO)[C@@H](O)[C@H](O)COP(=O)(O)O [xylulose-5-P, Xylulose-5-phosphate]

Molecule: O=C(O)CI [iodacetate, iodoacetate]
Polyols from glucose consumed in % ([2]; 28 h): 0.45% | Polyols from glucose consumed in % ([2]; 45 h): 0.74% | Polyols from glucose consumed in % ([2]; 52 h): 0.57% | Polyols from glucose consumed in % ([2]; 69 h): 0.72% | Polyols from glucose consumed in % ([2]; 77 h): 0.87% | Polyols from glucose consumed in % ([2]; 93 h): 0.93% | Polyols from glucose consumed in % ([2]; 100 h): 1.13% | glucose consumed metabolised to polyols (xylitol+part of ribitol) ([2]; in the presence of iodoacetate): 1.2% | increase in polyol production ([2]; in the presence of iodoacetate vs without): about 30%

B1: B. halodurans enzyme: xylitol-phosphate dehydrogenase from B. halodurans, SEQ ID NO:50, expressed from pGTK74(BHDH2) (protein)
chain: MKALNLYGIQDLRFEETPAPSIEHDDDIIIKVKAVGICGSDLSRYKKLGPYVPGMTFGHEFAGEVVKIGRSVTGFSIGDRVAACPTYTCGQCRYCQLGEPTRCERLSVIGARHPGAYAEYVKLPAKHVIPLPNVVNYDEAALIEPASVVAHGFYRTNIKPGASVAIMGVGSIGLLAVQWAKIFGATTVFAIDIDEQKLNVANQLGADVLISSLQRPAHKQILEYTNGIGVDVAVESAGTPSTSAQVFALPKKGGEVVFLGIPYADVQIERFYFEKIVRNELHVYGSWNALSSPFPGKEWATTIHYMSSGQLNVAPMISYRLPLAKGPETFQQIAKGELKPTKVLFYPEKLSERK
modifications: Bacillus halodurans
XPDH activity [3]: about 0.5 U/mg protein | products found in the reaction mixture / stereospecificity [4]: Only xylitol and xylulose (corresponding to the unreacted xylulose 5-phosphate) but no arabitol were found

B2: enzyme from B. halodurans: D-arabitol-phosphate dehydrogenase from B. halodurans, SEQ ID NO:70, expressed from pGTK74(BHDH) (protein)
chain: MKALVKTQHGTGHFAVQEKPEPTPGKHQVKIKVKYTGVCGSDIHTYEGHYPVAAPVTLGHEFSGEIVELGEGVTGFNVGDRVTSETTYSICGKCSYCTSGDYNLCSHRKGLGNQQDGSFAKYVIARQESLHHLPAGVDDRSAAMTEPLACTHHAIAKTSINKGDLVVVTGPGPIGLLAAQVAKSHGGTVIITGLSNDQVRLKKAKEVGIDYAIDTQEVDIKELVSELTDGYGADVVLECSGAVPAAKQGIDLLRKKGQYAQVGLFAQPEIQFNFEKIIQKEISVVGSRSQKPADWEPALSLLNEKKVNAKTLVTHEYTISEWDKAYHAIKSGEAIKVLLTPID
modifications: Bacillus halodurans (deduced sequence)
products found in the reaction mixture / stereospecificity [4]: this enzyme is indeed a D-arabitol-phosphate dehydrogenase

B3: XPDH from L. rhamnosus: xylitol-phosphate dehydrogenase from Lactobacillus rhamnosus, SEQ ID NO:49 (protein, listed as Lactobacillus rhamnosus)
chain: MKASMLEDLNKFSVKEIDIPSPKKDEVVVKVMAAGTCGSDSHKMISGWKYGYPAVMGHEFSGIVTQLGENVSNVSVGQHVAVAPFIPCFKCHYCQIGLFQMCENYSMLGQQKFGGFEQYVSVPARNVLDIGKMSFEEGALIEPMAVAAHAVMGIKPELGDTVAVFGLGTVGDLVVRLLISSGATNVIGIDIDDQKLEKGLDEGCTHVINSAKESLEEKIMEYTDGLGVDISMECAGSKITEEQTLLVTKRRGKVGFVGIAYSDVLLHQKAFENIFRHELTVTGFWNSYSAPFPGREWTNSIQLVNRGRIKIKDLITHRFELEDMQKAFNMITTRSESFNKVMFFPNGIN
XPDH activity [3]: approximately 0.3 U/mg protein
